Experimental data: paper PMC12699035, “Exploring market-approved azoles as potential breast cancer therapeutics targeting the VEGFR-2 biotarget” (Scientific Reports, 2025)
Where two headings read alike, the source gives them in different places.

Experiments:
MCF-7 cells = test: Cytotoxicity against MCF-7 cells, MTT assay (single dose and five doses); details: for Average OD / OD1 / OD2 / OD3: MCF-7, single dose 100 μg/mL, MTT optical density; for Average OD: average of triplicates; for OD1: replicate 1; for OD2: replicate 2; for OD3: replicate 3
MCF-10A cells = test: Cytotoxicity against MCF-10A cells, MTT assay (five doses); format: cell-based; details: Homo sapiens, MCF-10A normal cells, five dose concentrations, n = 3, read-out: MCF-10A IC50 ± SD
VEGFR-2 = molecular target: T1, VEGFR-2 (Homo sapiens, UniProt P35968); test: VEGFR-2 kinase inhibition, luminescent VEGFR2 (KDR) kinase assay kit (BPS Bioscience # 40325); format: biochemical; details: for VEGFR-2 enzyme inhibition LogIC50 (Fig. 3): unit not given
T1 construct: purchased BPS Bioscience 40325
T1 sequence (P35968 20-1356): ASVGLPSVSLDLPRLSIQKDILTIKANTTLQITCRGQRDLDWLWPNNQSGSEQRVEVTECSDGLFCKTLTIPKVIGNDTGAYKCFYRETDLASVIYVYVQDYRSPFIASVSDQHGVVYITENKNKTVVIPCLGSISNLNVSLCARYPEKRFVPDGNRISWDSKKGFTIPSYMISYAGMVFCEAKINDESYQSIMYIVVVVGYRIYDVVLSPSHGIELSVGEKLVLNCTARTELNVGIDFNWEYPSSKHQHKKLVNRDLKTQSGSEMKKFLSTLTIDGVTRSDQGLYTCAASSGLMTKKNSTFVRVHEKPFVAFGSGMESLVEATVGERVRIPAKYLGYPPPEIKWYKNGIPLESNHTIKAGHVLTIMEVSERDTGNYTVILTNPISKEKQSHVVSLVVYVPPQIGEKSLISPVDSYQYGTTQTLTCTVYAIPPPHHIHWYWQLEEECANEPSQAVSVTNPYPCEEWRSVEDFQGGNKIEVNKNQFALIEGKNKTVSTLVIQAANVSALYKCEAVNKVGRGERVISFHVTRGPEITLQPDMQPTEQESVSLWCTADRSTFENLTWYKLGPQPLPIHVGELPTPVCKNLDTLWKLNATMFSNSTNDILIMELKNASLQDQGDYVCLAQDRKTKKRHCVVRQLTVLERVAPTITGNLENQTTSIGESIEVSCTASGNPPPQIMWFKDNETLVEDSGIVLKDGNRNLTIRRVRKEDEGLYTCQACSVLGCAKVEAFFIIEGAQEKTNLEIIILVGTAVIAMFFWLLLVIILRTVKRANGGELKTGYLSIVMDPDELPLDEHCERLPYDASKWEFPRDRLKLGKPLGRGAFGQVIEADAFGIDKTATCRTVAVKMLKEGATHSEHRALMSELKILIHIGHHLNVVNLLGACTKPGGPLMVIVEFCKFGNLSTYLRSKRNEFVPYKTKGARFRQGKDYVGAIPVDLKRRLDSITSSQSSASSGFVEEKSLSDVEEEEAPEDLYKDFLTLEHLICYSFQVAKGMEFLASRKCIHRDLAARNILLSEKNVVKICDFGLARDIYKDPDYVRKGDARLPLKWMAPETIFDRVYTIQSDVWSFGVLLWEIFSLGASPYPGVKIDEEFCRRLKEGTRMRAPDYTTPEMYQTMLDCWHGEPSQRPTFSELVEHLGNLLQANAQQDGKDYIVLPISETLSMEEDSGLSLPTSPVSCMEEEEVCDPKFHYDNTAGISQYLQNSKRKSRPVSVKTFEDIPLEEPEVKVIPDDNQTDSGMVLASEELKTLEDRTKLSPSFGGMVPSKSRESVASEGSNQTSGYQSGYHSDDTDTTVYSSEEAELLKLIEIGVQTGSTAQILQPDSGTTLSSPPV
Method: Functionally, this pathway operates in autocrine and intracrine modes to promote cell proliferation, survival, and resistance to apoptosis through downstream effectors such as PI3K/AKT and p38 MAPK.
(§1) SIT, FLU and TNZ were tested using the five dose sigmoidal curves to determine the IC50 values. […] At the end of these experiment, anti-tumor potentiality was recorded using tumor weight (mg), tumor volume (mm^3), and the tumor inhibition ratio (TIR%). Hematological parameters of Hemoglobin (Hb, g/dL), RBC’s count (10^6/μL), and WBC’s count (10^3/μL) were investigated, along with histopathological and immunohistochemical staining of the VEGR2 protein.
Compounds Itraconazole. […] [12].

[1] = test system: Solid Ehrlich Carcinoma (SEC); test: In vivo anti-tumor activity in solid Ehrlich carcinoma (SEC)-bearing mice (tumor mass, volume, TIR%, hematology, histopathology)
Method: All experimental protocols were approved by the Research Ethics Committee and Institutional Animal Care and Use Committee, Faculty of Science, Suez Canal University with the ethical code (SCU-Sci-REC439/2025), and all methods were carried out according to the European Union guidelines and in accordance with ARRIVE guidelines. All animals were anesthetized using a combination of Xylazine 10 mg/kg- Ketamine 100 mg/kg of body weight, respectively, prior sacrifice via cervical decapitation.
In all graphs, treatments were administrated intraperitoneal (IP) with 6 mg/Kg B.Wt. for two weeks, day after day.
as §1, with “values. They were tested for the VEGFR2 inhibition using VEGFR2 Kinase Inhibition Assay Kit Catalog # 40325 BPS Bioscience, San Diego, CA.” for “values.”
Adult female Swiss albino mice purchased from Faculty of Pharmacy, Suez Canal University, Ismailia, Egypt, with an average body weight of (18-23) g was used. Mice were housed under constant conditions of 12 h light/dark cycle in a […], with free access to standard laboratory mice food and water. All procedures related to care and maintenance of the animals were performed according to the international guiding principles for animal research and approved by the Faculty of Pharmacy, Suez Canal University bioethics and animal ethics committee.
Solid Ehrlich carcinoma (SEC) was got from the National Cancer Institute (Cairo University, Egypt). The tumor cell line proliferated in mice through serial intraperitoneal (I.P.) transplantation of a volume of 0.2 mL physiological saline containing 1×10^6 viable cells for 24 h. SEC cells were collected 7 days after I.P. implantation. The harvested cells were diluted with saline to obtain a concentration of 5×10^6 viable SEC cells/mL. A volume of 0.2 mL saline contains 1×10^6 SEC cells that were I.P. implanted into each normal mouse. SEC cells (1×10^6 tumor cells/mouse) were implanted subcutaneously into the right thigh of the hind limb.
The experimental animals were randomly divided into four groups. Group 1 served as the normal saline control. Group 2 served as the SEC control (1×10^6 cells/mouse). Group 3 served as the ITR-treated group (6 mg/kg B.Wt., I.P.). […] Body weight and survival were recorded daily until the 24th day in both treated and control groups. At the end of the experiment, anesthetized animals were then sacrificed for evaluation of the antitumor activity and histopathological examination.
It includes tumor volume, weight, and tumor inhibition ratio (TIR%). Time interval measurements of tumor volume using a digital Vernier caliper (Tricle Brand, Shanghai, China). Measure tumor length and width using a clipper and then calculate tumor volume using formulations V = (L x W x W)/2, where V is tumor volume, W is tumor width, L is tumor length. While TIR% was calculated according to the following equation Tumor volume Control-Tumor volume (treated)Tumor volume (control)x 100.
Specimens of liver-sacrificed mice were fixed in 10% saline formalin. The fixed liver specimens were Dehydrated in ascending series of ethyl alcohol and embedded in paraffin.

VEGF = test: Immunohistochemical staining of VEGF in SEC tumor sections; format: in vivo, mice; details: IHC of SEC tumor
Excerpt: VEGF has been considered a biomarker for VEGFR-2 bioactivity, as it binds to and activates this kinase receptor, playing a crucial role in angiogenesis. High VEGF levels are often associated with increased VEGFR-2 expression and activity, making VEGF a marker for VEGFR-2's function and tumor growth. […] The staining intensity is strong (+ 3), with dark brown cytoplasmic staining in most tumor cells. The immunoreactive score (IRS), calculated by multiplying the staining intensity score and the percentage of positive cells, is 9–12, indicating a high level of VEGF expression. This intense VEGF expression correlates with the presence of numerous irregular and dilated blood vessels in the tumor microenvironment.
The paraffin-infiltrated tissue was sliced into thin sections (4-6 μm) using a microtome and floated in a water bath. The sections were then mounted onto charged slides and left to dry overnight. The use of charged slides ensures the sections adhere properly to the slide. To carry out antibody staining, the paraffin wax was removed from the sample, and the tissue was rehydrated. The paraffin was eliminated by placing the tissue sections in three containers of xylene for 5 minutes each. Rehydration began by immersing the sections in two containers of 100% ethanol for 10 minutes each, followed by two containers of 95% ethanol for 10 minutes each. Finally, to complete the rehydration, the sections were washed twice in deionized water for 5 minutes each.
For antigen retrieval, the slides are heated in 10 mM Tris/1 mM EDTA, pH 9.0, kept at a sub-boiling temperature for 18 minutes, and then allowed to cool at room temperature for 30 minutes. For chromogenic staining detection, the sections are rinsed in deionized water three times for 5 minutes each, and then the endogenous peroxidase activity in the tissue sections is quenched to prevent high background staining by incubating the sections in 3% hydrogen peroxide for 10 minutes. Afterward, the sections are washed twice in deionized water for 5 minutes each, followed by a single wash in wash buffer for 5 minutes. A hydrophobic pen is used to carefully draw a large circle around the sample, ensuring it doesn’t touch the sample, creating a hydrophobic boundary to achieve optimal antibody staining quality. To prevent non-specific antibodies from binding to the tissue, each section is blocked with 100–400 µl of blocking solution for 1 hour at room temperature in a humidified chamber. The blocking solution was discarded, and 100–400 µl of diluted primary antibody was applied. […]
The slides were incubated overnight at 4°C in a humidified chamber. […] Then, 100–400 µl of Signal Stain DAB was applied to each section and monitored closely for 1–10 minutes until an acceptable staining intensity was achieved. […]

[2] = Homo sapiens, MCF7, read-out: Average viability%
[3] = Homo sapiens, MCF7, read-out: MCF-7 IC50 ± SD, MCF-7, five dose concentrations, MTT, n = 3
[4] = Homo sapiens, MCF7, read-out: Viability (%) 1
[5] = Homo sapiens, MCF7, read-out: Viability (%) 2
[6] = Homo sapiens, MCF7, read-out: Viability (%) 3
[7] = enzyme inhibition, dose-response, non-linear regression, read-out: VEGFR-2 inhibition IC50

| SMILES | viability at 100 µg/mL (MCF-7 cells; [2]) [%] | IC50 (MCF-7 cells; [3]) [µM] | viability at 100 µg/mL (MCF-7 cells; [4]) [%] | viability at 100 µg/mL (MCF-7 cells; [5]) [%] | viability at 100 µg/mL (MCF-7 cells; [6]) [%] | Average OD (MCF-7 cells) | OD1 (MCF-7 cells) | OD2 (MCF-7 cells) | OD3 (MCF-7 cells) | IC50 (MCF-10A cells) [µM] | VEGFR-2 enzyme inhibition LogIC50 (Fig. 3) (VEGFR-2; dose-response curve fit) | other results |
| --- | --- | --- | --- | --- | --- | --- | --- | --- | --- | --- | --- | --- |
| COc1cccc2c1C(=O)c1c(O)c3c(c(O)c1C2=O)C[C@@](O)(C(=O)CO)C[C@@H]3O[C@H]1C[C@H](N)[C@H](O)[C@H](C)O1 [DOX, doxorubicin] | 46.2 | 3.91 ± 0.6 | 41.9 | 42.9 | 53.6 | 1.49 | 1.35 | 1.38 | 1.73 | 38.9 ± 1.1 |  |  |
| O=C1CN(/N=C/c2ccc(-c3ccc([N+](=O)[O-])cc3)o2)C(O)=N1 [Dantrolene, dantrolene] | 70 |  | 72 | 65.7 | 72.5 | 2.26 | 2.32 | 2.12 | 2.34 |  |  |  |
| OC(Cn1cncn1)(Cn1cncn1)c1ccc(F)cc1F [Fluconazole, fluconazole] | 64.3 | 260 | 62.7 | 67.3 | 62.9 | 2.07 | 2.02 | 2.17 | 2.03 | 32.3 ± 1.77 | 2.535 | IC50 (MCF-7 cells; read-out: MCF-7 IC50 ± SD, MCF-7, five dose concentrations, MTT, n = 3, listed as FLU): 261 ± 6.8 µM; IC50 (VEGFR-2; [7]): 343000 nM |
| CCCCc1nc(Cl)c(CO)n1Cc1ccc(-c2ccccc2-c2nn[nH]n2)cc1 [Losartan, losartan] | 71 |  | 71.4 | 69.1 | 72.3 | 2.29 | 2.30 | 2.23 | 2.33 |  |  |  |
| Clc1ccc(COC(Cn2ccnc2)c2ccc(Cl)cc2Cl)c(Cl)c1 (stereo not shown) [Miconazole, miconazole] | 76 |  | 77 | 76 | 75 | 2.45 | 2.48 | 2.45 | 2.42 |  |  |  |
| N[C@@H](CC(=O)N1CCn2c(nnc2C(F)(F)F)C1)Cc1cc(F)c(F)cc1F [Sitagliptin, sitagliptin] | 64.6 | 183 | 65.7 | 64.4 | 63.8 | 2.08 | 2.12 | 2.08 | 2.06 | 37.6 ± 1.9 | 2.016 | IC50 (MCF-7 cells; read-out: MCF-7 IC50 ± SD, MCF-7, five dose concentrations, MTT, n = 3, listed as SIT): 183 ± 3.1 µM; IC50 (VEGFR-2; [7]): 104000 nM |
| CNC(=O)c1cc(Oc2ccc(NC(=O)Nc3ccc(Cl)c(C(F)(F)F)c3)cc2)ccn1 [Sorafenib] |  |  |  |  |  |  |  |  |  |  |  | solid tumor mass ([1]; 6 mg/Kg B.Wt. IP, two weeks, day after day, SEC control 469 mg): 229 mg; tumor volume ([1]; 6 mg/Kg B.Wt. IP, two weeks, day after day, SEC control 420 mm^3): 214 mm^3; WBC's count ([1]; 6 mg/Kg IP, normal 5, SEC control 9.2): 6.6 10^3/µL; RBC's count ([1]; 6 mg/Kg IP, normal 6.9, SEC control 3.1): 4.9 10^6/µL; Hemoglobin level ([1]; 6 mg/Kg IP, normal 11.6, SEC control 4.6): 6.9 g/dL; Tumor cell density (histopathology of SEC mass) ([1]; isolated tumor mass, SEC control 2.2 cm^2): 0.5 cm^2; immunoreactive score (IRS) (VEGF; scale 0-12, SEC control 9–12): 1–2; percentage of VEGF-positive tumor cells (VEGF; SEC control 80–90%): 10–30% |
| CCS(=O)(=O)CCn1c([N+](=O)[O-])cnc1C [Tinidazole, tinidazole] | 67.5 | 301 | 68.2 | 66.2 | 68 | 2.16 | 2.20 | 2.14 | 2.19 | 51.5 ± 1.8 | 1.913 | IC50 (MCF-7 cells; read-out: MCF-7 IC50 ± SD, MCF-7, five dose concentrations, MTT, n = 3, listed as TNZ): 301 ± 7.6 µM; IC50 (VEGFR-2; dose-response curve fit, unit inferred, read-out: VEGFR-2 enzyme inhibition IC50 (Fig. 3)): 81900 nM; IC50 (VEGFR-2; enzyme inhibition, unit printed as nM in text, read-out: VEGFR-2 inhibition IC50): 81900 nM |
